Assays:
Assay type in all cases: cell-based, human
[1] = tested on: highly purified T cells stimulated by anti-CD28 mAb; assay: CD28 assay: T-cell proliferation stimulated by anti-CD28 mAb + PMA (BrdU); details: Table 1; anti-CD28 mAb + PMA 0.5 ng/ml, 48 h
Excerpt: (§1) Various models may be used for testing an immunosuppressive effect. In vivo, for example, different transplantation models are available. They are strongly influenced by different immunogenicities, depending on the donor and recipient species used and depending on the nature of the transplanted organ. The survival time of transplanted organs can thus be used to measure the suppression of the immune response. In vitro, the most used models are lymphocyte activation tests. Usually activation is measured via lymphocyte proliferation. Inhibition of proliferation thus always means immunosuppression under the experimental conditions applied. There exist different stimuli for lymphocyte activation: • a) co-culture of lymphocytes of […] (mixed lymphocyte reaction, hereinafter referred as MLR) in a so-called mixed lymphocyte culture test: lymphocytes expressing different minor and major antigens of the HLA-DR type (=alloantigens) activate each other non-specifically. • b) a CD3 assay here there is an activation of the T-lymphocytes via an exogenously added antibody (OKT3).
(§2) All reagents were dissolved in 0.5 ml dimethylsulfoxide (hereinafter referred as DMSO) and further diluted in culture medium before use for the following in vitro experiments. The commercially available culture medium consisted of RPMI-1640+10% foetal calf serum (FCS).
(§3) T cells were purified by removing non-T cells. Briefly, monocytes were removed by cold agglutination. The resulting lymphoid cells were further purified by a cell enrichment immunocolumn [Cellect Human T commercially available from Biotex, Edmonton, Alberta, Canada)] by a process of negative selection.
(§4) Highly purified T cells (10^6/ml) were stimulated by immobilized anti-CD3 or anti-CD28 monoclonal antibodies (hereinafter referred as mAb) in the presence of PMA. Anti-CD3 mAb (available from CLB, Amsterdam, Netherlands) were fixed on the 96-microwell plates by incubating the wells with 50 μl of mAb solution (1/800 dilution in culture medium). For anti-CD28 mAb (available from CLB, Amsterdam, Netherlands) 50 μl (1/650 dilution in culture medium) was added directly to the wells. Further, a 20 μl phorbol myristate acetate (hereinafter referred as PMA (commercially available from Sigma, St. Louis, Mo., USA) solution (final concentration: 0.5 ng/ml) was added. Subsequently, 20 μl of a compound described in some of the previous examples were added by serial dilution in triplicate wells. Finally 100 μl of the T-cell suspension (10^6/ml) was added. After 48-hour incubation at 37° C. in 5% CO2 20 μl of a bromo-deuridine (hereinafter referred as BrdU) 100 μM solution (commercially available as Cell Proliferation Elisa from Boehringer-Mannheim Belgium) was added to each well. After a further overnight incubation, T-cell proliferation was measured using a colorimetric immunoassay for qualification of cell proliferation based on the incorporation of BrdU during DNA synthesis. Optical density (hereinafter referred as OD) was measured by a Behring EL311 plate reader at 450 nm (reference wavelength: 690 nm). Inhibition of proliferation by a compound (drug) described in some of the previous examples was counted using the formula: [formula]

[2] = tested on: peripheral blood mononuclear cells (PBMC) with allogeneic PBMC or RPMI1788 stimulator cells; assay: Mixed lymphocyte reaction (MLR) test, [3H]-thymidine incorporation; details: Table 1; 5 days incubation + 16 h thymidine
Excerpt: as §1, §2
Peripheral blood mononuclear cells (hereinafter referred as PBMC) were isolated from heparinized peripheral blood by density gradient centrifugation over Lymphoprep (Nycomed, Maorstua, Norway). Allogeneic PBMC or Eppstein-Barr Virus-transformed human B cells [commercially available under the trade name RPM11788 (ATCC name CCL156)] which strongly express B7-1 and B7-2 antigens were used as stimulator cells after irradiation with 30 Gy. MLR was performed in triplicate wells. After 5 days incubation at 37° C., 1 μCi [^3 H]-thymidine was added to each cup. After a further 16 hours incubation, cells were harvested and counted in a β-counter. Inhibition of proliferation by a compound (drug) described in some of the previous examples was counted using the formula: [formula] wherein cpm is the thymidine count per minute. Assays for CD3 and CD 28

[3] = tested on: highly purified T cells stimulated by immobilized anti-CD3 mAb; assay: CD3 assay: T-cell proliferation stimulated by anti-CD3 mAb + PMA (BrdU); details: Table 1; anti-CD3 mAb + PMA 0.5 ng/ml, 48 h; read-out: CD 3 IC50
Excerpt: as §1, §2, §3, §4

Compound	IC50 [1]	IC50 [2]	IC50 [3]
Cn1c(=O)c2nc(/C=C/c3cccnc3)cnc2n(C)c1=O [Example 6, 1,3-dimethyl-6-[(E)-2-(pyrid-3-yl)vinyl]lumazine]	110 µM	30 µM	110 µM
Cn1c(=O)c2nc(/C=C/c3ccncc3)cnc2n(C)c1=O [Example 7, 1,3-dimethyl-6-[(E)-2-(pyrid-4-yl)vinyl]lumazine]	150 µM	20 µM	150 µM
Cn1c(=O)c2nc(C(Br)C(Br)c3ccccc3)cnc2n(C)c1=O (stereo not drawn) [Example 8, 6-(1,2-dibromo-2-phenylethyl)-1,3-dimethyllumazine]	1.55 µM	15 µM	
Cn1c(=O)c2nc(/C=C/C=Cc3ccccc3)cnc2n(C)c1=O [Example 9, 1,3-dimethyl-6-[(E)-4-(phenyl)butadienyl]lumazine]	140 µM	75 µM	140 µM
COC(=O)C(Br)C(Br)c1cnc2c(n1)c(=O)n(C)c(=O)n2C (stereo not drawn) [Example 11, 6-(1,2-dibromo-2-(methoxycarbonyl)ethyl)-1,3-dimethyllumazine]	0.08 µM	12 µM	0.55 µM
COC(=O)C(Br)=Cc1cnc2c(n1)c(=O)n(C)c(=O)n2C [Example 12, 6-(2-bromo-2-methoxycarbonyl-ethenyl)-1,3-dimethyllumazine]	0.08 µM		0.58 µM
COC(=O)C=C(OC)c1cnc2c(n1)c(=O)n(C)c(=O)n2C [Example 16]	80 µM	70 µM	80 µM
Cn1c(=O)c2nc(C(O)C[N+](=O)[O-])cnc2n(C)c1=O (stereo not drawn) [Example 17, 6-[(1-hydroxy-2-nitro)ethyl]-1,3-dimethyllumazine]	15 µM	90 µM	25 µM
Cn1c(=O)c2nc(C=C[N+](=O)[O-])cnc2n(C)c1=O [Example 18, 1,3-dimethyl-6-[(2-nitro)ethenyl]lumazine]	0.4 µM	12 µM	0.8 µM
CCSC(C[N+](=O)[O-])c1cnc2c(n1)c(=O)n(C)c(=O)n2C (stereo not drawn) [Example 19, 6-[(1-ethylthio-2-nitro)ethyl]-1,3-dimethyl-lumazine]	0.09 µM	4.5 µM	0.35 µM
Cn1c(=O)c2ncc(/C=C/c3cccnc3)nc2n(C)c1=O [Example 21, 1,3-dimethyl-7-[(E)-2-(pyrid-3-yl)vinyl]lumazine]	60 µM	20 µM	100 µM
Cn1c(=O)c2ncc(/C=C/c3ccncc3)nc2n(C)c1=O [Example 22, 1,3-dimethyl-7-[(E)-2-(pyrid-4-yl)vinyl]lumazine]	100 µM	75 µM	125 µM
Cn1c(=O)c2ncc(/C=C/C=Cc3ccccc3)nc2n(C)c1=O [Example 23, 1,3-dimethyl-7-[(E)-4-(phenyl)butadienyl]-lumazine]	80 µM	30 µM	110 µM
COC(=O)/C=C/c1cnc2c(=O)n(C)c(=O)n(C)c2n1 [Example 24, 7-[(E)-2-methoxycarbonylethenyl]-1,3-dimethyl-lumazine]	12 µM	15 µM	12 µM
COC(=O)C(Br)C(Br)c1cnc2c(=O)n(C)c(=O)n(C)c2n1 (stereo not drawn) [Example 25, 7-[1,2-dibromo-2-(methoxycarbonyl)ethyl)-1,3-dimethyllumazine]		1.9 µM	
Cn1c(=O)c2ncc(/C=C/c3ccccc3)nc2n(C)c1=O [Example 26, 1,3-dimethyl-7-(E)-styryllumazine]	115 µM	50 µM	115 µM
Cn1c(=O)c2ncc(C(Br)C(Br)c3ccccc3)nc2n(C)c1=O (stereo not drawn) [Example 27, 7-(1,2-dibromo-2-phenylethyl)-1,3-dimethyllumazine]	0.1 µM	12 µM	

Compound	IC50 [1]	IC50 [2]	IC50 [3]
Cn1c(=O)c2ncc(C(Br)=Cc3ccccc3)nc2n(C)c1=O [Example 28, 7-(1-bromo-2-phenyl)ethenyl-1,3-dimethyllumazine]	2.7 µM	2.7 µM	2.4 µM
Cn1c(=O)c2ncc(Cl)nc2n(C)c1=O [Example 31, 7-chloro-1,3-dimethyllumazine]	0.1 µM	12 µM	
Cn1c(=O)c2nc(-c3ccccc3)c(S)nc2n(C)c1=O [Example 32, 1,3-dimethyl-6-phenyl-7-mercaptolumazine]	25 µM	25 µM	25 µM
CCOc1nc2c(nc1-c1ccccc1)c(=O)n(C)c(=O)n2C [Example 33, 7-ethoxy-1,3-dimethyl-6-phenyllumazine]	70 µM	40 µM	100 µM
Cn1c(=O)c2nc(-c3ccccc3)c(Cl)nc2n(C)c1=O [Example 34, 7-chloro-1,3-dimethyl-6-phenyllumazine]	0.07 µM	3.75 µM	0.08 µM
COc1nc2c(nc1C=Cc1ccccc1)c(=O)n(C)c(=O)n2C [Example 40, 7-methoxy-1,3-dimethyl-6-styryllumazine]	> 200 µM	20 µM	> 200 µM
Cn1c(=O)[nH]c(=O)c2nc(-c3ccccc3)c(-c3ccccc3)nc21 [Example 41, 1-methyl-6,7-diphenyllumazine]	25 µM	35 µM	25 µM
Cn1c(=O)[nH]c2nc(O)c(-c3ccccc3)nc2c1=O [Example 42, 7-hydroxy-3-methyl-6-phenyllumazine]	25 µM	55 µM	20 µM
CCCn1c(=O)c2nc(-c3ccccc3)c(O)nc2n(CCC)c1=O [Example 44, 7-hydroxy-6-phenyl-1,3-di-n-propyllumazine]	70 µM	120 µM	80 µM
Cn1c(=O)c2nc(C=O)c(O)nc2n(C)c1=O [Example 45, 6-formyl-7-hydroxy-1,3-dimethyl-lumazine]	9 µM	> 200 µM	15.5 µM
Cn1c(=O)c2nc(O)c(C=O)nc2n(C)c1=O [Example 46, 6-hydroxy-7-formyl-1,3-dimethyl-lumazine]	80 µM	72 µM	104 µM
Cn1c(=O)c2nc(C#N)c(Cl)nc2n(C)c1=O [Example 47, 6-cyano-7-chloro-1,3-dimethyl-lumazine]	12 µM	104 µM	15 µM
CCOC(=O)c1nc2c(=O)n(C)c(=O)n(C)c2nc1Cl [Example 48, 6-ethylcarboxylate-7-chloro-1,3-dimethyl-lumazine]		12.5 µM	
Cn1c(=O)c2nc(C3OCCO3)c(Cl)nc2n(C)c1=O [Example 49, 6-(1,3-dioxolanyl)-7-chloro-1,3-dimethyl-lumazine]	3.6 µM	11 µM	2.2 µM
Cn1c(=O)c2nc(C(Cl)Cl)c(Cl)nc2n(C)c1=O [Example 50, 6-dichloromethyl-7-chloro-1,3-dimethyl-lumazine]	9.5 µM	4 µM	9.5 µM
Cn1c(=O)c2nc(C=Cc3ccc(OC(F)(F)F)cc3)cnc2n(C)c1=O [Example 80, 6-[2-(p-trifluoromethoxyphenyl)ethenyl]-1,3-dimethyllumazine]		9 µM	
CCOC(=O)CSc1nc2c(nc1C#N)c(=O)n(C)c(=O)n2C [Example 81, 6-cyano-7-ethylmercaptoacetate-1,3-dimethyllumazine]		12.2 µM	

From patent US6946465B2, “Immunosuppressive effects of pteridine derivatives” (4 AZA Bioscience NV, priority 1999, dated 2005)
